According to patent publication EP0908457B1, “3-(1,2-benzisothiazol- and isoxazol-5-Y1)-2,4(1H,3H)-pyrimidinedione or thione and 3-(1,2-benzisothiazol- and isoxazol-5-y1)-4(3H)-pyrimidinone or thione herbicidal agents” (BASF AKTIENGESELLSCHAFT, priority 1997, dated 1999):

Assays:
Cyperus iria [1] = experiment: Postemergence weed control under flooded paddy conditions, CYPIR (Rice Flatsedge); format: in vivo; settings: rated three to four weeks after treatment
[2] = system: Oryza sativa, (L.) Tebonnet; experiment: Rice tolerance to post-transplant applications under flooded paddy conditions (Example 188), ORYSAT (Rice, Tebonnet); settings: rated three to four weeks after treatment
[3] = system: Oryza sativa, (L.) Tebonnet; experiment: Rice tolerance to post-transplant applications under flooded paddy conditions (Example 187), ORYSAT (Rice, Tebonnet); settings: rated 3-4 weeks after treatment; further: meaning of each grade not given here
Cyperus iria [4] = experiment: Preemergence weed control under flooded paddy conditions, CYPIR (Rice Flatsedge); format: in vivo; further: meaning of each grade not given here
[5] = system: Monochoria vaginalis, Presl.; experiment: Preemergence weed control under flooded paddy conditions, MOOVA (Monochoria); format: in vivo; further: meaning of each grade not given here
[6] = system: Echinochloa oryzoides (Ard.) Fritsch.; experiment: Postemergence weed control under flooded paddy conditions, ECHORC (Watergrass (Calif.)); format: in vivo; settings: rated three to four weeks after treatment
[7] = system: Cyperus serotinus, Rottb.; experiment: Postemergence weed control under flooded paddy conditions, CYPSE (Flatsedge); format: in vivo; settings: rated three to four weeks after treatment
Sagittaria pygmaea, L. [8] = experiment: Preemergence weed control under flooded paddy conditions, SAGPY (Arrowhead (Pygmaea)); format: in vivo; settings: preemergence, flooded paddy, rated 3-4 weeks after treatment; further: meaning of each grade not given here
[9] = system: Monochoria vaginalis, Presl.; experiment: Postemergence weed control under flooded paddy conditions, MOOVA (Monochoria); format: in vivo; settings: rated three to four weeks after treatment
[10] = system: Cyperus serotinus, Rottb.; experiment: Preemergence weed control under flooded paddy conditions, CYPSE (Flatsedge); format: in vivo; settings: preemergence, rated 3-4 weeks after treatment; further: meaning of each grade not given here
[11] = system: Echinochloa oryzoides (Ard.) Fritsch.; experiment: Preemergence weed control under flooded paddy conditions, ECHORC (Watergrass (Calif.)); format: in vivo; further: meaning of each grade not given here
Sagittaria pygmaea, L. [12] = experiment: Postemergence weed control under flooded paddy conditions, SAGPY (Arrowhead (Pygmaea)); format: in vivo; settings: rated three to four weeks after treatment
[13] = Rate 0.0320 kg/ha, preemergence, flooded paddy, rated 3-4 weeks after treatment
[14] = Rate 0.0620 kg/ha, preemergence, flooded paddy, rated 3-4 weeks after treatment
[15] = Rate 0.1250 kg/ha, preemergence, flooded paddy, rated 3-4 weeks after treatment
[16] = Rate 0.2500 kg/ha, preemergence, flooded paddy, rated 3-4 weeks after treatment

Cc1ccc(OCC(=O)OCC2(c3ccccc3)CC2)c(-c2nsc3ccc(-n4c(=O)cc(C(F)(F)F)n(C)c4=O)cc23)c1 [Example 517, Acetic acid, {{2-{5-[3,6-dihydro-3-methyl-2,6-dioxo-4-(trifluoromethyl)-1(2H)-pyrimidinyl]-1,2-benzisothiazol-3-yl}-p-tolyl}oxy}-, (1-phenylcyclopropyl)methyl ester]
3.0: herbicidal effect rating, CYPIR (Cyperus iria [1]; Rate 0.0320 kg/ha) | herbicidal effect rating ORYSAT ([3]; Rate 0.2500 kg/ha) | herbicidal effect rating, CYPSE ([10]; Rate 0.0320 kg/ha)
5.5: herbicidal effect rating, CYPIR (Cyperus iria [4]; [13]) | herbicidal effect rating, CYPIR (Cyperus iria [4]; [15])
8.0: herbicidal effect rating, ECHORC [11, 15]
6.5: herbicidal effect rating, CYPIR (Cyperus iria [4]; [14])
7.0: herbicidal effect rating, CYPIR (Cyperus iria [4]; [16])
9.0: herbicidal effect rating, CYPIR (Cyperus iria [1]; Rate 0.1250 kg/ha) | herbicidal effect rating, CYPIR (Cyperus iria [1]; Rate 0.2500 kg/ha) | herbicidal effect rating, MOOVA [5, 13] | herbicidal effect rating, MOOVA [5, 14] | herbicidal effect rating, MOOVA [5, 15] | herbicidal effect rating, MOOVA [5, 16] | herbicidal effect rating, MOOVA ([9]; Rate 0.0320 kg/ha) | herbicidal effect rating, MOOVA ([9]; Rate 0.0620 kg/ha) | herbicidal effect rating, MOOVA ([9]; Rate 0.1250 kg/ha) | herbicidal effect rating, MOOVA ([9]; Rate 0.2500 kg/ha) | herbicidal effect rating, ECHORC [11, 13] | herbicidal effect rating, ECHORC [11, 14] | herbicidal effect rating, ECHORC [11, 16]
4.5: herbicidal effect rating, CYPSE ([10]; Rate 0.0620 kg/ha) | herbicidal effect rating, CYPSE ([10]; Rate 0.1250 kg/ha)
5.0: herbicidal effect rating, CYPIR (Cyperus iria [1]; Rate 0.0620 kg/ha)
1.5: herbicidal effect rating ORYSAT ([3]; Rate 0.1250 kg/ha)
0.0: herbicidal effect rating, ORYSAT (rice tolerance) ([2]; Rate 0.0320 kg/ha) | herbicidal effect rating, ORYSAT (rice tolerance) ([2]; Rate 0.0620 kg/ha) | herbicidal effect rating, ORYSAT (rice tolerance) ([2]; Rate 0.1250 kg/ha) | herbicidal effect rating, ORYSAT (rice tolerance) ([2]; Rate 0.2500 kg/ha) | herbicidal effect rating ORYSAT ([3]; Rate 0.0320 kg/ha) | herbicidal effect rating ORYSAT ([3]; Rate 0.0620 kg/ha) | herbicidal effect rating, ECHORC ([6]; Rate 0.0320 kg/ha) | herbicidal effect rating, ECHORC ([6]; Rate 0.0620 kg/ha) | herbicidal effect rating, ECHORC ([6]; Rate 0.1250 kg/ha) | herbicidal effect rating, ECHORC ([6]; Rate 0.2500 kg/ha) | herbicidal effect rating, CYPSE ([7]; Rate 0.0320 kg/ha) | herbicidal effect rating, CYPSE ([7]; Rate 0.0620 kg/ha) | herbicidal effect rating, CYPSE ([7]; Rate 0.1250 kg/ha) | herbicidal effect rating, CYPSE ([7]; Rate 0.2500 kg/ha) | herbicidal effect rating, SAGPY (Sagittaria pygmaea, L. [8]; Rate 0.0320 kg/ha) | herbicidal effect rating, SAGPY (Sagittaria pygmaea, L. [8]; Rate 0.0620 kg/ha) | herbicidal effect rating, SAGPY (Sagittaria pygmaea, L. [8]; Rate 0.1250 kg/ha) | herbicidal effect rating, SAGPY (Sagittaria pygmaea, L. [8]; Rate 0.2500 kg/ha) | herbicidal effect rating, CYPSE ([10]; Rate 0.2500 kg/ha) | herbicidal effect rating, SAGPY (Sagittaria pygmaea, L. [12]; Rate 0.0320 kg/ha) | herbicidal effect rating, SAGPY (Sagittaria pygmaea, L. [12]; Rate 0.0620 kg/ha) | herbicidal effect rating, SAGPY (Sagittaria pygmaea, L. [12]; Rate 0.1250 kg/ha) | herbicidal effect rating, SAGPY (Sagittaria pygmaea, L. [12]; Rate 0.2500 kg/ha)

COC(=O)C(C)Oc1ccc(C)cc1-c1nsc2ccc(-n3c(=O)cc(C(F)(F)F)n(C)c3=O)cc12 (stereo not drawn) [Example 3, Methyl 2-{{2-{5-[3,6-dihydro-3-methyl-4-(trifluoromethyl)-2,6-dioxo-1(2H)-pyrimidinyl]-1,2-benzisothiazol-3-yl}-p-tolyl}oxy}propionate]
4.0: herbicidal effect rating, ECHORC ([6]; Rate 0.5000 kg/ha)
3.0: herbicidal effect rating, ORYSAT (rice tolerance) ([2]; Rate 0.1250 kg/ha) | herbicidal effect rating, ORYSAT (rice tolerance) ([2]; Rate 0.2500 kg/ha) | herbicidal effect rating, ORYSAT (rice tolerance) ([2]; Rate 0.5000 kg/ha)
9.0: herbicidal effect rating, CYPIR (Cyperus iria [1]; Rate 0.0313 kg/ha) | herbicidal effect rating, CYPIR (Cyperus iria [1]; Rate 0.0625 kg/ha) | herbicidal effect rating, CYPIR (Cyperus iria [1]; Rate 0.1250 kg/ha) | herbicidal effect rating, CYPIR (Cyperus iria [1]; Rate 0.2500 kg/ha) | herbicidal effect rating, CYPIR (Cyperus iria [1]; Rate 0.5000 kg/ha) | herbicidal effect rating, CYPIR (Cyperus iria [4]; in vivo) | herbicidal effect rating, MOOVA ([5]; in vivo) | herbicidal effect rating, MOOVA ([9]; Rate 0.0313 kg/ha) | herbicidal effect rating, MOOVA ([9]; Rate 0.0625 kg/ha) | herbicidal effect rating, MOOVA ([9]; Rate 0.1250 kg/ha) | herbicidal effect rating, MOOVA ([9]; Rate 0.2500 kg/ha) | herbicidal effect rating, MOOVA ([9]; Rate 0.5000 kg/ha) | herbicidal effect rating, ECHORC ([11]; in vivo)
2.0: herbicidal effect rating, ORYSAT (rice tolerance) ([2]; Rate 0.0313 kg/ha) | herbicidal effect rating, ORYSAT (rice tolerance) ([2]; Rate 0.0625 kg/ha) | herbicidal effect rating, ECHORC ([6]; Rate 0.2500 kg/ha)
0.0: herbicidal effect rating, ECHORC ([6]; Rate 0.0313 kg/ha) | herbicidal effect rating, ECHORC ([6]; Rate 0.0625 kg/ha) | herbicidal effect rating, ECHORC ([6]; Rate 0.1250 kg/ha) | herbicidal effect rating, CYPSE ([7]; Rate 0.0313 kg/ha) | herbicidal effect rating, CYPSE ([7]; Rate 0.0625 kg/ha) | herbicidal effect rating, CYPSE ([7]; Rate 0.1250 kg/ha) | herbicidal effect rating, CYPSE ([7]; Rate 0.2500 kg/ha) | herbicidal effect rating, CYPSE ([7]; Rate 0.5000 kg/ha) | herbicidal effect rating, SAGPY (Sagittaria pygmaea, L. [12]; Rate 0.0313 kg/ha) | herbicidal effect rating, SAGPY (Sagittaria pygmaea, L. [12]; Rate 0.0625 kg/ha) | herbicidal effect rating, SAGPY (Sagittaria pygmaea, L. [12]; Rate 0.1250 kg/ha) | herbicidal effect rating, SAGPY (Sagittaria pygmaea, L. [12]; Rate 0.2500 kg/ha) | herbicidal effect rating, SAGPY (Sagittaria pygmaea, L. [12]; Rate 0.5000 kg/ha)
